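At the GI50, growth is halved. At the TGI there is no net growth.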
Columns and labels:
Assay in all cases: growth of human tumour cells (NCI), 384-well format; in the data active = GI50 below about 0.43 µM; inactive = the rest
RXF 393 renal = tested on: RXF 393 renal
T-47D breast = tested on: T-47D breast
SN12C renal = tested on: SN12C renal
SK-OV-3 ovarian = tested on: SK-OV-3 ovarian
HL-60(TB) leukemia = tested on: HL-60(TB) leukemia
NCI-H23 lung = tested on: NCI-H23 lung
ACHN renal = tested on: ACHN renal
TK-10 renal = tested on: TK-10 renal
OVCAR-5 ovarian = tested on: OVCAR-5 ovarian
SF-295 CNS = tested on: SF-295 CNS
BT-549 breast = tested on: BT-549 breast
SF-268 CNS = tested on: SF-268 CNS
SNB-19 CNS = tested on: SNB-19 CNS
MALME-3M melanoma = tested on: MALME-3M melanoma
UACC-62 melanoma = tested on: UACC-62 melanoma
HCT-116 colon = tested on: HCT-116 colon
SK-MEL-28 melanoma = tested on: SK-MEL-28 melanoma
IGROV1 ovarian = tested on: IGROV1 ovarian
SR leukemia = tested on: SR leukemia
RPMI-8226 leukemia = tested on: RPMI-8226 leukemia
HOP-92 NSCLC = tested on: HOP-92 NSCLC
NCI-H522 lung = tested on: NCI-H522 lung
MOLT-4 leukemia = tested on: MOLT-4 leukemia
CAKI-1 renal = tested on: CAKI-1 renal
KM12 colon = tested on: KM12 colon
NCI/ADR-RES ovarian = tested on: NCI/ADR-RES ovarian
HCT-15 colon = tested on: HCT-15 colon
MCF7 breast = tested on: MCF7 breast
U251 glioblastoma = tested on: U251 glioblastoma
A549 NSCLC = tested on: A549 NSCLC
EKVX NSCLC = tested on: EKVX NSCLC
SF-539 CNS = tested on: SF-539 CNS
LOX IMVI melanoma = tested on: LOX IMVI melanoma
MDA-MB-231 breast = tested on: MDA-MB-231 breast
MDA-MB-435 melanoma = tested on: MDA-MB-435 melanoma
OVCAR-8 ovarian = tested on: OVCAR-8 ovarian
NCI-H322M lung = tested on: NCI-H322M lung
COLO 205 colon = tested on: COLO 205 colon
OVCAR-3 ovarian = tested on: OVCAR-3 ovarian
A498 renal = tested on: A498 renal
NCI-H460 NSCLC = tested on: NCI-H460 NSCLC
DU-145 prostate = tested on: DU-145 prostate
SNB-75 CNS = tested on: SNB-75 CNS
M14 melanoma = tested on: M14 melanoma
PC-3 prostate = tested on: PC-3 prostate
OVCAR-4 ovarian = tested on: OVCAR-4 ovarian
MDA-MB-468 breast = tested on: MDA-MB-468 breast
HOP-62 NSCLC = tested on: HOP-62 NSCLC
HT29 colon = tested on: HT29 colon
NCI-H226 lung = tested on: NCI-H226 lung
HCC-2998 colon = tested on: HCC-2998 colon
UACC-257 melanoma = tested on: UACC-257 melanoma
SK-MEL-5 melanoma = tested on: SK-MEL-5 melanoma
HS 578T breast = tested on: HS 578T breast

COC1CCN(C(=O)c2cc(Cc3n[nH]c(=O)c4ccccc34)ccc2F)CC1
49.8 µM: TGI (HOP-62 NSCLC)
> 100 µM: TGI (RXF 393 renal) | TGI (T-47D breast) | TGI (SN12C renal) | TGI (SK-OV-3 ovarian) | TGI (NCI-H23 lung) | TGI (ACHN renal) | TGI (TK-10 renal) | TGI (OVCAR-5 ovarian) | TGI (SF-295 CNS) | TGI (BT-549 breast) | TGI (SF-268 CNS) | TGI (SNB-19 CNS) | TGI (MALME-3M melanoma) | TGI (UACC-62 melanoma) | TGI (HCT-116 colon) | TGI (SK-MEL-28 melanoma) | TGI (IGROV1 ovarian) | TGI (RPMI-8226 leukemia) | TGI (HOP-92 NSCLC) | TGI (NCI-H522 lung) | TGI (CAKI-1 renal) | TGI (KM12 colon) | TGI (NCI/ADR-RES ovarian) | TGI (HCT-15 colon) | TGI (MCF7 breast) | TGI (U251 glioblastoma) | TGI (A549 NSCLC) | TGI (EKVX NSCLC) | TGI (SF-539 CNS) | TGI (LOX IMVI melanoma) | TGI (MDA-MB-231 breast) | TGI (MDA-MB-435 melanoma) | TGI (OVCAR-8 ovarian) | TGI (NCI-H322M lung) | TGI (COLO 205 colon) | TGI (OVCAR-3 ovarian) | TGI (A498 renal) | TGI (DU-145 prostate) | TGI (SNB-75 CNS) | TGI (M14 melanoma) | TGI (PC-3 prostate) | TGI (OVCAR-4 ovarian) | TGI (HT29 colon) | TGI (NCI-H226 lung) | TGI (HCC-2998 colon) | TGI (UACC-257 melanoma) | TGI (SK-MEL-5 melanoma) | TGI (HS 578T breast)
29.7 µM: TGI (HL-60(TB) leukemia)
inactive: GI50 (RXF 393 renal) > 100 µM | GI50 (T-47D breast) > 100 µM | GI50 (SN12C renal) 46.1 µM | GI50 (SK-OV-3 ovarian) 32.3 µM | GI50 (HL-60(TB) leukemia) 10.4 µM | GI50 (NCI-H23 lung) 59.7 µM | GI50 (ACHN renal) > 100 µM | GI50 (TK-10 renal) > 100 µM | GI50 (OVCAR-5 ovarian) > 100 µM | GI50 (SF-295 CNS) 11.4 µM | GI50 (BT-549 breast) 84.6 µM | GI50 (SF-268 CNS) 44.5 µM | GI50 (SNB-19 CNS) 46.9 µM | GI50 (MALME-3M melanoma) > 100 µM | GI50 (UACC-62 melanoma) > 100 µM | GI50 (HCT-116 colon) 28.7 µM | GI50 (SK-MEL-28 melanoma) > 100 µM | GI50 (IGROV1 ovarian) > 100 µM | GI50 (RPMI-8226 leukemia) 46.6 µM | GI50 (HOP-92 NSCLC) > 100 µM | GI50 (NCI-H522 lung) > 100 µM | GI50 (MOLT-4 leukemia) 4.06 µM | GI50 (CAKI-1 renal) > 100 µM | GI50 (KM12 colon) > 100 µM | GI50 (NCI/ADR-RES ovarian) 34.9 µM | GI50 (HCT-15 colon) > 100 µM | GI50 (MCF7 breast) 68.1 µM | GI50 (U251 glioblastoma) 25.8 µM | GI50 (A549 NSCLC) > 100 µM | GI50 (EKVX NSCLC) > 100 µM | GI50 (SF-539 CNS) 27.3 µM | GI50 (LOX IMVI melanoma) 33.5 µM | GI50 (MDA-MB-231 breast) 81 µM | GI50 (MDA-MB-435 melanoma) > 100 µM | GI50 (OVCAR-8 ovarian) 22.6 µM | GI50 (NCI-H322M lung) > 100 µM | GI50 (COLO 205 colon) > 100 µM | GI50 (OVCAR-3 ovarian) 7.79 µM | GI50 (A498 renal) > 100 µM | GI50 (NCI-H460 NSCLC) 5.93 µM | GI50 (DU-145 prostate) 68.2 µM | GI50 (SNB-75 CNS) 94.7 µM | GI50 (M14 melanoma) 74.7 µM | GI50 (PC-3 prostate) > 100 µM | GI50 (OVCAR-4 ovarian) > 100 µM | GI50 (MDA-MB-468 breast) 9.62 µM | GI50 (HOP-62 NSCLC) 10.4 µM | GI50 (HT29 colon) > 100 µM | GI50 (NCI-H226 lung) > 100 µM | GI50 (HCC-2998 colon) 63.7 µM | GI50 (UACC-257 melanoma) > 100 µM | GI50 (SK-MEL-5 melanoma) 74.2 µM | GI50 (HS 578T breast) > 100 µM
2.45 µM: TGI (SR leukemia)
56.1 µM: TGI (NCI-H460 NSCLC)
active: GI50 (SR leukemia) 0.364 µM
33.3 µM: TGI (MDA-MB-468 breast)
14.2 µM: TGI (MOLT-4 leukemia)
